In patent publication US7129250B2, “Neuroprotective and anti-proliferative compounds” (Aegera Therapeutics Inc., priority 2000, dated 2006):
One block for each compound: values may come before it.

Columns and labels:
[1] = tested on: CGNs; experiment: Cisplatin Killing of CGNs; format: cell-based, CD1 mice; conditions: for IC50: assayed 48 hours after final drug treatment
Procedure: Cisplatin has been used extensively in the treatment of various cancers. One dosblimiting side effect of this chemotherapeutic agent is related to hearing loss as a result of its toxicity to auditory neurons and loss of feeling in the extremities. Cisplatin induces apoptosis to both cultured CGN and cortical neurons.
CGNs were harvested from day 8/9 post-natal CD1 mice, plated on Poly-D-Lycine coated plates and incubated for 6 days at 37° C. under 5% CO2. The cells were treated with media containing drug and cisplatin […].

[2] = tested on: CGNs; experiment: High/Low Potassium (HK/LK) assay in CGNs; format: cell-based; conditions: HK/LK switch, drug 24 h pre-treatment, assayed 16 h after media change, concentration at which cell death was inhibited by 50%
Procedure: Cultured CGNs which are maintained in a medium containing 26 mM potassium (high K^+ or HK) undergo cell death when the medium is changed to one containing 5 mM potassium (low K^+ or LK). HK maintains the cells in a highly polarized state, duplicating that of fully innervated neurons. The switch to LK (5 mM is more representative of physiological conditions) results in depolarization of the cells, mimicking the loss of neuronal conductivity. […] As these killer genes are turned on by various types of neuronal insult as observed in AD, PD, and stroke, HK/LK is a general in vitro model for neuronal degradation, blanketing a wide range of neurodegenerative diseases. Compounds that protect against HK/LK in CGNs would therefore be efficacious in treatment and/or prevention of various neurodegenerative disease states.
CGNs were harvested from day 8/9 post-natal CD1 mice, plated on Poly-D-Lycine coated plates and incubated for 6 days at 37° C., with […] potassium, under 5% CO2. Pretreated cells were treated with drug 24 hours prior to changing the media to one containing […] potassium and drug. Cells were assayed 16 hours after the final media change using cell TITER96 (Promega).

[3] = tested on: HIAP1 mRNA in LAN5 cells; experiment: LAN5 HAIP1 Down Regulators (RNA levels); format: cell-based; conditions: HIAP1 RNA level vs control = 1.0; 24 hours drug
Procedure: LAN5 cells were grown in growth media. Cells were plated at cells 50,000 per well in 96 cells per 96 wells. Five days latter drug was added and the cells were liced 24 hours latter using RLT buffer.

[4] = tested on: CGNs; experiment: Ceramide Killing of CGNs; format: cell-based, CD1 mice; conditions: ceramide 100 uM
Description: Ceramide is a native […] found in most mammalian and human cells. The upregulation of endogenous ceramide has been linked to caspase 1 (ICE) induced apoptosis (Suzuki, A. et al. Exp. Cel. Res., 1997, 233, 41). In a similar fashion, the addition of ceramide to cultured CGNs results in caspase induced apoptosis, and is therefore considered an effective in vitro model for the various neurodegenerative diseases described above, which are characterized by caspase induced apoptosis, as observed in stroke models. Addition of selected compounds of the formula I through III, 24 hours prior to the addition of ceramide, to cultured CGNs provided protection against apoptosis, with 10 to 20% of the cells being saved at 1–10 μM drug concentrations (see Example 114).
CGNs were harvested from day 8/9 post-natal CD1 mice, plated on Poly-D-Lycine coated plates and incubated for 6 days at 37° C. under 5% CO2. Cells were pretreated with drug 24 hours prior to ceramide (100 uM) and drug addition.

[5] = tested on: SHSY-5Y cells; experiment: Etoposide Killing of SHSY-5Y; format: cell-based; conditions: etoposide 32 uM
Procedure: SHSY-5Y cells were grown in growth media. Cells are placed at 50,000 cells per 96 well. Four days latter the cells were treated with drug for 48 hours prior to etoposide (32 uM) treatment. On day 6 media was changed to that containing etoposide and drug for 4 hours, at which point the media was changed to media containing drug only. Cells are allowed to survive overnight and then assessed for viability with metabolic activity measured (WST-1-Beohringer Mannheime), as shown in TABLE 13.

[6] = tested on: Jurkat cells; experiment: Killing of cultured Jurkats with and without anti-Fas; format: cell-based, Human; conditions: for Survival % With Anti-Fas: with anti-Fas (5 ng/mL)
Procedure: Jurkats are a T-cell derived lymphoma cell line which expresses both FAS receptor and Fas-L. These cells, however, are only mildly sensitive to Fas-L/anti-Fas induced apoptosis. Select compounds were tested for their ability to kill Jurkats. Additionally, we investigated the ability of select compounds to sensitize the Jurkats to anti-Fas mediated apoptosis.
Human lymphoma jurkat cells were cultured in suspension in 24 well plates. Jurkat cell were treated with test compounds either alone or in the presence of suboptimal doses of anti-Fas antibody. After 18 hours of treatment cell death was assessed by Facs. Cells were incubated with propidium iodide and the percentage of cells that incorporated the stain was counted by Facs.

SMILES: COc1ccc2c(ccn2C2=C(c3c[nH]c4ccccc34)C(=O)NC2=O)c1 [Compound 3, 3-(5-Methoxyindol-1-yl)-4-(1H-indol-3-yl)-1H-pyrrole-2,5-dione]
IC50 ([1]; Mus musculus): 10 µM

SMILES: COc1ccc2c(c1)CC1c3[nH]c4ccccc4c3C3=C(C(=O)NC3=O)N21 (stereo not drawn) [Compound 34]
IC50 [2]: 10 µM
IC50 [1]: 10 µM

SMILES: COc1ccc2c(c1)cc1c3[nH]c4ccccc4c3c3c(n21)C(=O)NC3=O [Compound 48]
IC50 [2]: 3 µM
IC50 [1]: 10 µM

SMILES: O=C1C=C(c2c[nH]c3ccc(Br)cc23)C(=O)N1 [Compound 56, 3-(1H-5-bromoindol-3-yl)-1H-pyrrole-2,5-dione]
Fold Induction [3]: 0.31

Fold Induction [3]: 0.40
SMILES: O=C1C=C(c2cn(C(=O)c3ccccc3)c3ccc(Br)cc23)C(=O)N1 [Compound 59, 3-(N-benzoyl-5-bromoindol-3-yl)-1H-pyrrole-2,5-dione]

SMILES: Cc1ccc(S(=O)(=O)n2cc(C3=CC(=O)NC3=O)c3cc(Br)ccc32)cc1 [Compound 60, 3-(N-(p-toluenesulfoiiyl)-5-bromoindol-3-yl)-1H-pyrrole-2,5-dione]
IC50 [2]: 10 µM
Fold Induction [3]: 0.13

SMILES: O=C1C=C(c2cn(S(=O)(=O)c3cccc4ccccc34)c3ccc(Br)cc23)C(=O)N1 [Compound 61, 3-(N-(1-naphthylenesulfonyl)-5-bromoindol-3-yl)-1H-pyrrole-2,5-dione]
Fold Induction [3]: 0.16
% CGN Survival ([4]; drug 100 nM): 0%
% CGN Survival ([4]; drug 1 μM): 5.1%

SMILES: O=C1C=C(c2cn(S(=O)(=O)c3ccc4ccccc4c3)c3ccc(Br)cc23)C(=O)N1 [Compound 62, 3-(N-(2-naphthylenesulfonyl)-5-bromoindol-3-yl)-1H-pyrrole-2,5-dione]
Fold Induction [3]: 0.18

Fold Induction [3]: 0.22
SMILES: CN(C)c1cccc2c(S(=O)(=O)n3cc(C4=CC(=O)NC4=O)c4cc(Br)ccc43)cccc12 [Compound 63, 3-(N-dansyl-5-bromoindol-3-yl)-1H-pyrrole-2,5-dione]

SMILES: CC(C)(C)OC(=O)NCC(=O)n1cc(C2=CC(=O)NC2=O)c2cc(OCc3ccccc3)ccc21 [Compound 69, 3-(N-(N-Boc-2-aminoacetyl)-5-benzyloxyindol-3-yl)-1H-pyrrole-2,5-dione]
% SHSY-5Y cell survival ([5]; drug 1 μM): 5.6%

Fold Induction [3]: 0.21
SMILES: Cc1ccc(S(=O)(=O)n2cc(C3=CC(=O)NC3=O)c3cc(OCc4ccccc4)ccc32)cc1 [Compound 70, 3-(N-tosyl-5-benzyloxyindol-3-yl)-1H-pyrrole-2,5-dione]
% SHSY-5Y cell survival ([5]; drug 10 μM): 7.6%

SMILES: O=C1C=C(c2cn(S(=O)(=O)c3ccc([N+](=O)[O-])cc3)c3ccc(OCc4ccccc4)cc23)C(=O)N1 [Compound 71, 3-(N-(4-nitrobenzenesulfonyl)-5-benzyloxyindol-3-yl)-1H-pyrrole-2,5-dione]
% SHSY-5Y cell survival ([5]; drug 10 μM): 26.4%

SMILES: O=C1C=C(c2cn(Cc3ccccc3)c3ccc(OCc4ccccc4)cc23)C(=O)N1 [Compound 73, 3-(N-benzyl-5-benzyloxyindol-3-yl)-1H-pyrrole-2,5-dione]
% SHSY-5Y cell survival ([5]; drug 10 μM): toxic

SMILES: O=C1C=C(c2cn(Cc3ccc(F)cc3)c3ccc(OCc4ccccc4)cc23)C(=O)N1 [Compound 77, 3-(N-(4-fluorobenzyl)-5-benzyloxyindol-3-yl)-1H-pyrrole-2,5-dione]
IC50 ([2]; Mus musculus): 10 µM

SMILES: O=C1C=C(c2cn(S(=O)(=O)c3ccccc3[N+](=O)[O-])c3ccccc23)C(=O)N1 [Compound 95, 3-(N-(2-nitrobenzenesulfonyl)indol-3-yl)-1H-pyrrole-2,5-dione]
IC50 ([2]; Mus musculus): 10 µM

SMILES: O=C1C=C(c2cn(S(=O)(=O)c3ccc([N+](=O)[O-])cc3)c3ccccc23)C(=O)N1 [Compound 96, 3-(N-(4-nitrobenzenesulfonyl)indol-3-yl)-1H-pyrrole-2,5-dione]
IC50 ([2]; Mus musculus): 10 µM

SMILES: O=C1C=C(c2c[nH]c3ccc(Cl)cc23)C(=O)N1 [Compound 99, 3-(1H-5-chloroindol-3-yl)-1H-pyrrole-2,5-dione]
% SHSY-5Y cell survival ([5]; drug 10 μM): 4.7%

SMILES: O=C1NC(=O)C(n2ccc3ccccc32)=C1c1cn(CCCO)c2ccccc12 [Compound 121]
% SHSY-5Y cell survival ([5]; drug 1 μM): 5.5%

SMILES: N=C(N)SCCCn1c2ccccc2c2c3c(n4c5ccccc5cc4c21)C(=O)NC3=O [Compound 145]
Survival % With Anti-Fas ([6]; compound dose 3 (μM)): 34.9%
Survival % Without Anti-Fas ([6]; compound dose 3 (μM)): 92.44%
Survival % Without Anti-Fas ([6]; compound dose 10 (μM)): 11%

SMILES: Cc1cn(C2=C(c3cn(CCCSC(=N)N)c4ccccc34)C(=O)NC2=O)c2ccccc12 [Compound 146]
Survival % With Anti-Fas ([6]; compound dose 3 (μM)): 19.7%
Survival % Without Anti-Fas ([6]; compound dose 3 (μM)): >90%
Survival % Without Anti-Fas ([6]; compound dose 10 (μM)): 0%

SMILES: N=C(N)SCCCn1cc(C2=C(n3ccc4cc(OCc5ccccc5)ccc43)C(=O)NC2=O)c2ccccc21 [Compound 147]
Survival % With Anti-Fas ([6]; compound dose 3 (μM)): 19.7%
Survival % Without Anti-Fas ([6]; compound dose 3 (μM)): >90%
Survival % Without Anti-Fas ([6]; compound dose 10 (μM)): 0%

SMILES: N=C(N)SCCCn1cc(C2=C(n3ccc4ccccc43)C(=O)NC2=O)c2cc(OCc3ccccc3)ccc21 [Compound 148]
Survival % Without Anti-Fas ([6]; compound dose 3 (μM)): >90%
Survival % With Anti-Fas ([6]; compound dose 10 (μM)): 19.7%
Survival % Without Anti-Fas ([6]; compound dose 10 (μM)): 0%

SMILES: Cc1cn(C2=C(c3cn(CCCSC(=N)N)c4ccc(OCc5ccccc5)cc34)C(=O)NC2=O)c2ccccc12 [Compound 149]
Survival % With Anti-Fas ([6]; compound dose 3 (μM)): 2.00%
Survival % Without Anti-Fas ([6]; compound dose 3 (μM)): >90%
Survival % Without Anti-Fas ([6]; compound dose 10 (μM)): 0%

SMILES: Cc1cc2ccccc2n1C1=C(c2cn(CCCSC(=N)N)c3ccc(OCc4ccccc4)cc23)C(=O)NC1=O [Compound 150]
Survival % With Anti-Fas ([6]; compound dose 3 (μM)): 4.49%
Survival % Without Anti-Fas ([6]; compound dose 3 (μM)): >90%
Survival % Without Anti-Fas ([6]; compound dose 10 (μM)): 0%

SMILES: N=C(N)SCCCn1cc(C2=C(N3CCc4ccccc43)C(=O)NC2=O)c2ccccc21 [Compound 159]
Survival % With Anti-Fas ([6]; compound dose 3 (μM)): 9.48%
Survival % Without Anti-Fas ([6]; compound dose 3 (μM)): >90%
Survival % Without Anti-Fas ([6]; compound dose 10 (μM)): 17.38%

SMILES: Cn1cc(C2=C(n3cc(CCCSC(=N)N)c4ccccc43)C(=O)NC2=O)c2ccccc21 [Compound 167]
Survival % With Anti-Fas ([6]; compound dose 0.3 (μM)): 43.3%
Survival % Without Anti-Fas ([6]; compound dose 0.3 (μM)): 97.7%
Survival % With Anti-Fas ([6]; compound dose 1 (μM)): 16.7%
Survival % Without Anti-Fas ([6]; compound dose 1 (μM)): 88.3%
Survival % With Anti-Fas ([6]; compound dose 3 (μM)): 4.9%
Survival % Without Anti-Fas ([6]; compound dose 3 (μM)): 50.3%
Survival % With Anti-Fas ([6]; compound dose 10 (μM)): 0%
Survival % Without Anti-Fas ([6]; compound dose 10 (μM)): 0%
Survival % With Anti-Fas ([6]; compound dose 30 (μM)): 0%
Survival % Without Anti-Fas ([6]; compound dose 30 (μM)): 0%

SMILES: Cn1cc(C2=C(n3cc(CCCSC(=N)N)c4ccccc43)C(=O)NC2=O)c2cc(OCc3ccccc3)ccc21 [Compound 168]
Survival % With Anti-Fas ([6]; compound dose 0.3 (μM)): 49.0%
Survival % Without Anti-Fas ([6]; compound dose 0.3 (μM)): 90.7%
Survival % With Anti-Fas ([6]; compound dose 1 (μM)): 48.6%
Survival % Without Anti-Fas ([6]; compound dose 1 (μM)): 89.3%
Survival % With Anti-Fas ([6]; compound dose 3 (μM)): 1%
Survival % Without Anti-Fas ([6]; compound dose 3 (μM)): 46.1%
Survival % With Anti-Fas ([6]; compound dose 10 (μM)): 0%
Survival % Without Anti-Fas ([6]; compound dose 10 (μM)): 1.2%
Survival % With Anti-Fas ([6]; compound dose 30 (μM)): 0%
Survival % Without Anti-Fas ([6]; compound dose 30 (μM)): 0%

SMILES: COc1ccc2[nH]cc(CCNC(C)=O)c2c1 [melatonin, Melatonin, reference compound]
protection of CGNs ([1]; high doses): protect CGNs
